Source: patent publication US10413557B2, “Prodrugs of 17.BETA.-HSD1-inhibitors” (FORENDO PHARMA LTD, priority 2014, dated 2019)

Legend:
[1] = Metabolic stability assay; format: in vitro ADME; conditions: human liver homogenate or microsomes
Description: The in vitro metabolic stability of the parent compounds was determined for exemplified compounds using human liver microsome and homogenate incubations. The incubation time points used with or without appropriate cofactors were 0 min and 60 min. Samples were collected at both time points and substrates were detected using LC/PDA/TOF-MS. In vitro metabolic stability (% remaining after 60 min in human liver homogenate or microsomes) of the compounds were calculated and the results are summarized in Table 4.

[2] = molecular target: T1, recombinant human 17β-HSD1 (Homo sapiens, UniProt P14061); assay: Inhibition of recombinant human 17β-HSD1 (conversion of 3H-estrone to estradiol, HPLC); format: biochemical; conditions: inhibitor 1 μM, 30 nM estrone, 1 mM NADPH, 30 min RT; for inhibition at 1 µM: read-out: 17β-HDS1 Inhibition % at 1 μM
T1 construct: made in house; host or cells: Sd9 (Sf9) insect cells, baculovirus (Bac to Bac Expression System)
T1 sequence (P14061 1-328): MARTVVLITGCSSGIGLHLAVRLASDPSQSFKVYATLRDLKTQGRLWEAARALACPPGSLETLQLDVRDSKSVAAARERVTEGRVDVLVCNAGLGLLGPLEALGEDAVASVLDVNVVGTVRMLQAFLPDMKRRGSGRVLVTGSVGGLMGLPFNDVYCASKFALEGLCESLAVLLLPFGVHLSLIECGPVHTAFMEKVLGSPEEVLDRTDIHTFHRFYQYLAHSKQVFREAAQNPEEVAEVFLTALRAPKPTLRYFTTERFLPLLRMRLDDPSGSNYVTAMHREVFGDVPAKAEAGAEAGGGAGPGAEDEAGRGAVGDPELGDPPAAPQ
Description: 17β-HSD1 production and isolation: Recombinant baculovirus was generated by the “Bac to Bac Expression System” (Invitrogen). Recombinant bacmid was transfected to Sd9 insect cells using “Cellfectin Reagent” (Invitrogen). 60 h later cells were harvested; the microsomal fraction was isolated as described by Puranen, T. J., Poutanen, M. H., Peltoketo, H. E., Vihko, P. T. and Vihko, R. K. (1994) Site-directed mutagenesis of the putative active site of human 17 β-hydroxysteroid dehydrogenase type 1. Biochem. J. 304: 289-293. Aliquots were stored frozen until determination of enzymatic activity.
Assay—Inhibition of recombinant human 17β-HSD1: Protein homogenate (0.1 μg/ml) was incubated in 20 mM KH2PO4 pH 7.4 with 30 nM estrone (including 800 000 cpm/ml of ^3H-estrone) and 1 mM NADPH for 30 min at RT, in the presence of the potential inhibitor at concentrations 1 μM or 0.1 μM. Inhibitor stock solutions were prepared in DMSO. Final concentration of DMSO was adjusted to 1% in all samples. The enzyme reaction was stopped by addition of 10% trichloroacetic acid (final concentration). Samples were centrifuged in a microtiter plate at 4000 rpm for 10 min. Supernatants were applied to reverse phase HPLC on a Waters Symmetry C18 column, equipped with a Waters Sentry Guard column. Isocratic HPLC runs were performed at RT at a flow rate of 1 ml/min in acetonitrile:water 48:52 as running solvent. Radioactivity was monitored in the eluate by a Packard Flow Scintillation Analyzer. Total radioactivity for estrone and estradiol were determined in each sample and percent conversion of estrone to estradiol was calculated according to the following formula:
(§1) Percent inhibition was calculated flowingly: % inhibition=100−% conversion

[3] = molecular target: T2, recombinant human 17β-HSD2 (Homo sapiens, UniProt P37059); assay: Inhibition of recombinant human 17β-HSD2 (conversion of 3H-estradiol to estrone, HPLC); format: biochemical; conditions: inhibitor 1 μM; 50 nM estradiol, 1 mM NADH, 30 min RT
T2 construct: made in house; host or cells: Sd9 (Sf9) insect cells, baculovirus (Bac to Bac Expression System)
T2 sequence (P37059 1-387): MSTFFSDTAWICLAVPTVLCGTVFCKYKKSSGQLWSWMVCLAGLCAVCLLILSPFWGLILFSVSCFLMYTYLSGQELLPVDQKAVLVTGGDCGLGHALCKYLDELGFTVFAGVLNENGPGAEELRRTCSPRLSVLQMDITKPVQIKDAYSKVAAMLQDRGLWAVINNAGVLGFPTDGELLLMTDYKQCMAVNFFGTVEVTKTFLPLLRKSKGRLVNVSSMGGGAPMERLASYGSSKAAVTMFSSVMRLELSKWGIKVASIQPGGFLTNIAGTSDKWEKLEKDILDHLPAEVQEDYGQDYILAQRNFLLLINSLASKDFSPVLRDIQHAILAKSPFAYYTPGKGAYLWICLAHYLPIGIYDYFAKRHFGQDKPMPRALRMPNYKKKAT
Description: 17β-HSD2 production and isolation: Similarly to 17β-HSD1 the Recombinant baculovirus was generated by the “Bac to Bac Expression System” (Invitrogen). Recombinant bacmid was transfected to Sd9 insect cells using “Cellfectin Reagent” (Invitrogen). 60 h later cells were harvested and supernatant were fractionated by the following protocol: • cells were dissolved into 40 ml of A-buffer (40 mM TRIS, pH8.0, 20% glycerol, 20 μM NAD, 0.4 mM PMSF, 150 mM NaCl, 0.5% dodecyl-β-maltoside+protease inhibitor cocktail) • cells were sonicated • lysate was incubated on ice for 15 min • lysate was centrifuged 5000 rpm 15 min, +4° C. • centrifugation of the supernatant 180 000 g 30 min, +4° C. • pellet was dissolved into 8 ml of A-buffer • not resuspended material was removed by centrifugation 5000 rpm 15 min, +4° C. • the clear supernatant was divided into 100 μl aliquots and were stored frozen until determination of enzymatic activity.
The amount of 17β-HSD2 was analysed by immunoblotting and total protein concentration of each extract batch was determined.
Assay—Inhibition of recombinant human 17β-HSD2: Protein homogenate (4 μg/ml) was incubated in 20 mM KH2PO4 pH 8.5 with 50 nM estradiol (including 800 000 cpm/ml of ^3H-estradiol) and 1 mM […] for 30 min at RT, in the presence of the potential inhibitor at concentrations 1 μM or 0.1 μM. Inhibitor stock solutions were prepared in DMSO. Final concentration of DMSO was adjusted to 1% in all samples. The enzyme reaction was stopped by addition of 10% trichloroacetic acid (final concentration). Samples were centrifuged in a microtiter plate at 4000 rpm for 10 min. Supernatants were applied to reverse phase HPLC on a Waters Symmetry C18 column, equipped with a Waters Sentry Guard column. Isocratic HPLC runs were performed at RT at a flow rate ofl ml/min in acetonitrile:water 48:52 as running solvent. Radioactivity was monitored in the eluate by a Packard Flow Scintillation Analyzer. Total radioactivity for estrone and estradiol were determined in each sample and percent conversion of estradiol to estrone was calculated according to the following formula:
as §1

Molecule	In vitro metabolic stability, % remaining after 60 min [1] [%]	17β-HDS1 Inhibition % at 1 μM [2] [%]	17β-HSD2 Inhibition % at 1 μM [3] [%]	inhibition at 1 µM [2] [%]	inhibition at 1 µM [3] [%]
3-{(13S,15R)-4-Fluoro-3-hydroxy-17-[(E)-methoxyimino]-13-methyl-7,8,9,11,12,13,14,15,16,17-decahydro-6H-cyclopenta[a]phenanthren-15-yl}-N-(5-methylthiazol-2-yl)propanamide [VIV-16]	68	90	7	–	–
Cc1cnc(NC(=O)CC[C@@H]2CC(=O)[C@@]3(C)CCC4c5ccc(O)cc5CCC4C23)s1 (some centres unmarked) [VII, reference compound]	13	–	–	–	–
CO/N=C1\C[C@@H](CCC(=O)Nc2ncc(C)s2)C2C3CCc4cc(O)c(Cl)cc4C3CC[C@]12C (stereo partly drawn) [VIV-12, 3-{(13S,15R)-2-Chloro-3-hydroxy-17-[(E)-methoxyimino]-13-methyl-7,8,9,11,12,13,14,15,16,17-decahydro-6H-cyclopenta[a]phenanthren-15-yl}-N-(5-methylthiazol-2-yl)propanamide]	94	–	–	95	3
3-{(13S,15R)-2-Fluoro-3-hydroxy-17-[(E)-methoxyimino]-13-methyl-7,8,9,11,12,13,14,15,16,17-decahydro-6H-cyclopenta[a]phenanthren-15-yl}-N-(5-methylthiazol-2-yl)propanamide [VIV-15]	92	94	5	–	–
Cc1cnc(NC(=O)CC[C@@H]2C/C(=N\O)[C@@]3(C)CCC4c5cc(Cl)c(O)cc5CCC4C23)s1 (stereo partly drawn) [VIV-28, 3-{(13S,15R)-2-Chloro-3-hydroxy-17-[(E)-hydroxyimino]-13-methyl-7,8,9,11,12,13,14,15,16,17-decahydro-6H-cyclopenta[a]phenanthren-15-yl}-N-(5-methylthiazol-2-yl)propanamide]	–	–	–	98	21
CO/N=C1\C[C@@H](CCC(=O)Nc2ncc(C)s2)C2C3CCc4c(cc(Br)c(O)c4F)C3CC[C@]12C (stereo partly drawn) [VIV-17, 3-{(13S,15R)-2-Bromo-4-fluoro-3-hydroxy-17-[(E)-methoxyimino]-13-methyl-7,8,9,11,12,13,14,15,16,17-decahydro-6H-cyclopenta[a]phenanthren-15-yl}-N-(5-methylthiazol-2-yl)propanamide]	–	–	–	83	2
CO/N=C1\C[C@@H](CCC(=O)Nc2ncc(C)s2)C2C3CCc4c(cc(Br)c(O)c4Br)C3CC[C@]12C (stereo partly drawn) [VIV-11, 3-{(13S,15R)-2,4-Dibromo-3-hydroxy-17-[(E)-methoxyimino]-13-methyl-7,8,9,11,12,13,14,15,16,17-decahydro-6H-cyclopenta[a]phenanthren-15-yl}-N-(5-methylthiazol-2-yl)propanamide]	–	–	–	78	3
CO/N=C1\C[C@@H](CCC(=O)Nc2ncc(C)s2)C2C3CCc4cc(O)c(Br)cc4C3CC[C@]12C (stereo partly drawn) [VIV-9, 3-{(13S,15R)-2-Bromo-3-hydroxy-17-[(E)-methoxyimino]-13-methyl-7,8,9,11,12,13,14,15,16,17-decahydro-6H-cyclopenta[a]phenanthren-15-yl}-N-(5-methylthiazol-2-yl)-propanamide]	34	–	–	81	1
Cc1cnc(NC(=O)CC[C@@H]2C/C(=N\O)[C@@]3(C)CCC4c5cc(F)c(O)cc5CCC4C23)s1 (stereo partly drawn) [VIV-31, 3-{(13S,15R)-2-Fluoro-3-hydroxy-17-[(E)-hydroxyimino]-13-methyl-7,8,9,11,12,13,14,15,16,17-decahydro-6H-cyclopenta[a]phenanthren-15-yl}-N-(5-methylthiazol-2-yl)propanamide]	–	–	–	97	14
Cc1cnc(NC(=O)CC[C@@H]2C/C(=N\O)[C@@]3(C)CCC4c5ccc(O)c(Br)c5CCC4C23)s1 (stereo partly drawn) [VIV-26, 3-{(13S,15R)-4-Bromo-3-hydroxy-17-[(E)-hydroxyimino]-13-methyl-7,8,9,11,12,13,14,15,16,17-decahydro-6H-cyclopenta[a]phenanthren-15-yl}-N-(5-methylthiazol-2-yl)propanamide]	–	–	–	89	15
CO/N=C1\C[C@@H](CCC(=O)Nc2ncc(C)s2)C2C3CCc4c(cc(I)c(O)c4I)C3CC[C@]12C (stereo partly drawn) [VIV-8, 3-{(13S,15R)-3-Hydroxy-2,4-diiodo-17-[(E)-methoxyimino]-13-methyl-7,8,9,11,12,13,14,15,16,17-decahydro-6H-cyclopenta[a]phenanthren-15-yl}-N-(5-methylthiazol-2-yl)propanamide]	–	–	–	61	2
CO/N=C1\C[C@@H](CCC(=O)Nc2ncc(C)s2)C2C3CCc4c(ccc(O)c4[N+](=O)[O-])C3CC[C@]12C (stereo partly drawn) [VIV-4, 3-{(13S,15R)-3-Hydroxy-17-[(E)-methoxyimino]-13-methyl-4-nitro-7,8,9,11,12,13,14,15,16,17-decahydro-6H-cyclopenta[a]phenanthren-15-yl}-N-(5-methylthiazol-2-yl)propanamide]	–	–	–	90	16
CO/N=C1\C[C@@H](CCC(=O)Nc2ncc(C)s2)C2C3CCc4c(ccc(O)c4I)C3CC[C@]12C (stereo partly drawn) [VIV-7, 3-{(13S,15R)-3-Hydroxy-4-iodo-17-[(E)-methoxyimino]-13-methyl-7,8,9,11,12,13,14,15,16,17-decahydro-6H-cyclopenta[a]phenanthren-15-yl}-N-(5-methylthiazol-2-yl)propanamide]	–	–	–	81	0
